The values below come from US9096591B2, “Tetracyclic compounds” (Medivation Technologies, Inc., priority 2007, dated 2015).

Several values for one entry are separate records, joined by “and”; a condition that tells them apart may be missing. Equal entries are not always repeated.

One data set has as its system mice. In words: recognition test of new location of a known object (spatial memory). It is filed as in vivo. The settings on record: for effect of the dose on exploration time / memory (in words) / time exploring the object in a new location, % of the total time / time exploring the object in the known position, % of the total time / overall effect on memory (in words): mice; for overall effect on memory (in words): doses 0.05-1 mg/kg.

Data set [1] deals with synaptosomes of cortex of rat brain. Description: Glutamate-induced 45Ca2+ uptake into synaptosomes. In kind it is biochemical, Wistar rats. The settings on record: for % Ca of control (control-100%), glutamate-induced 45Ca2+ uptake into synaptosomes: rat cortex synaptosomes. The method, then: Synaptosomes were obtained from cerebral cortex of newborn (9-10 days) Wistar rats using standard Hajos method. The brain was homogenized with 10 volumes of cooled 0.32 M sucrose at 900 rpm. The homogenate was centrifuged at 1500 g for 10 min. and the resulted supernatant was centrifuged at 10000 g for 20 min. The radioactive label was accumulated by suspension of the synaptosomal P2-fraction in the incubation buffer A having the following composition: 132 mM NaCl, 5 mM KCl, 5 mM HEPES, 10 mM glucose, pH 7.4 (protein concentration of approximately 1.5-2 mg/ml). The mixture was further incubated for 5 min with 200 μM glutamate at 37° C. and then ^45Ca^2+ uptake was stopped by filtration through GF/B filters (Whatman, England) followed by three washes with cold buffer B (145 mM KCl, 10 mM Tris, 5.4 mM Trilon B, pH 7.4). The radioactivity probes were analyzed by fluid scintillation beta-analyzer (TriCarb, Perkin Elmer). All tests were performed in three parallel trials in 2-3 independent experiments. The amount of ^45Ca^2+ uptake was estimated by calculating the difference of radioactive label during the stimulation with glutamate and without the stimulation with agonist.
Specific ^45Ca^2+ uptake was estimated using the following equation: K(43/21)=[(Ca4−Ca3)/(Ca2−Ca1)]100%, where
Ca1—^45Ca^2+ uptake for the Control (without glutamate and the compound tested),
[…] glutamate-induced ^45Ca^2+ uptake (glutamate only),
Ca3—^45Ca^2+ uptake in the presence of the compound tested (without glutamate),
Ca4—^45Ca^2+ uptake in the presence of glutamate and the testing compound.
Statistical analysis of the results was performed using Student's t-test.

The target in data set [2] is T1, human recombinant histamine H2 receptor (Homo sapiens, UniProt P25021).
T1 construct: expressed in transfected cells; host or cells: CHO-K1 cells
In words: Histamine H2 radioligand binding ([125I]Aminopotentidine). The settings on record: 0.3 μM compound; 0.1 nM [125I]Aminopotentidine; read-out: Histamine Binding H2, percent inhibition of specific binding. The method, then: Non-specific binding was estimated in the presence of 3 μM Tiotidine. […] Biochemical assay results are presented as the percent inhibition of specific binding in Table 5.
Non-specific binding was estimated in the presence of 3 μM Tiotidine. […] Compounds were screened at 1 μM, using 1% DMSO as vehicle. Biochemical assay results are presented as the percent inhibition of specific binding in Table 6.

Data set [3] concerns the target T2, human recombinant histamine H1 receptor (Homo sapiens, UniProt P35367).
T2 construct: expressed in transfected cells; host or cells: CHO cells
Description: Histamine H1 radioligand binding ([3H]Pyrilamine). The settings on record: […] [3H]Pyrilamine, read-out: Histamine Binding H1, percent inhibition of specific binding. The method, then:
To evaluate in radioligand binding assays the activity of compounds of the invention, human recombinant histamine H1 receptor expressed in Chinese hamster ovary (CHO) cells (De Backer M D et al. Biochem. Biophys. Res Comm. 197(3):1601, 1993) in a modified Tris-HCl buffer (50 mM Tris-HCl, pH 7.4, 2 mM MgCl2, 100 mM NaCl, 250 mM Sucrose) were used. […] Non-specific binding was estimated in the presence of 1 μM pyrilamine. Receptor proteins were filtered and washed, the filters were then counted to determine [^3H]pyrilamine specifically bound. […] Biochemical assay results are presented as the percent inhibition of specific binding in Table 5.
To evaluate in radioligand binding assays the activity of compounds of the invention, human recombinant histamine H1 receptor expressed in Chinese hamster ovary (CHO) cells (De Backer, M. D. et al., Biochem. Biophys. Res. Comm. 197(3):1601, 1993) in a modified Tris-HCl buffer (50 mM Tris-HCl, pH 7.4, 2 mM MgCl2, 100 mM NaCl, 250 mM Sucrose) was used. […] Non-specific binding was estimated in the presence of 1 μM pyrilamine. Receptor proteins were filtered and washed, the filters were then counted to determine [^3H]Pyrilamine specifically bound. Compounds were screened at 1 μM, using 1% DMSO as vehicle. Biochemical assay results are presented as the percent inhibition of specific binding in Table 6.

The subject of data set [4] is adrenergic receptors α1D, α2A, α2B; serotonin receptor 5-HT6; dopamine receptor D2L. In words: Classification of compounds (Type 1-4) from receptor binding and neurite outgrowth. The text has this:
Compounds of the invention that inhibit binding of a ligand to adrenergic receptors α1D, α2A, α2B and serotonin receptor 5-HT6 by at least about 80% as determined in a suitable assay such as the assays described herein can be classified as Type 1 compounds. […] In one variation, binding of a ligand to serotonin receptor 5-HT7 is at least about 80%. […] Weak inhibition of binding of a ligand to the histamine H1 receptor is permitted as agonists of this receptor have been implicated in stimulating memory as well as weight gain. In one variation, binding to histamine receptor H1 is inhibited by less than about 80%. […] Compounds that inhibit binding of a ligand to the dopamine D2L receptor by at least about 80% as determined in a suitable assay such as the assay described herein can be classified as Type 2 compounds.
In one variation, Type 1 compounds further inhibit binding of a ligand to dopamine receptor D2L by less than about 80% as determined in a suitable assay known in the art such as the assay described herein. […] In one variation, binding of a ligand to serotonin receptor 5-HT7, 5-HT2A and/or 5-HT2C is inhibited by at least about 80% as determined in a suitable assay such as the assays described herein. […] In one variation, binding of a ligand to histamine receptor H1 and/or H2 is inhibited by less than about 80% as determined by a suitable assay known in the art such as the assays described herein.
In one variation, biding to serotonin receptor 5-HT2A is inhibited by at least about 80% as determined in a suitable assay know in the art such as the assay described herein.

T2 sequence (P35367 whole entry): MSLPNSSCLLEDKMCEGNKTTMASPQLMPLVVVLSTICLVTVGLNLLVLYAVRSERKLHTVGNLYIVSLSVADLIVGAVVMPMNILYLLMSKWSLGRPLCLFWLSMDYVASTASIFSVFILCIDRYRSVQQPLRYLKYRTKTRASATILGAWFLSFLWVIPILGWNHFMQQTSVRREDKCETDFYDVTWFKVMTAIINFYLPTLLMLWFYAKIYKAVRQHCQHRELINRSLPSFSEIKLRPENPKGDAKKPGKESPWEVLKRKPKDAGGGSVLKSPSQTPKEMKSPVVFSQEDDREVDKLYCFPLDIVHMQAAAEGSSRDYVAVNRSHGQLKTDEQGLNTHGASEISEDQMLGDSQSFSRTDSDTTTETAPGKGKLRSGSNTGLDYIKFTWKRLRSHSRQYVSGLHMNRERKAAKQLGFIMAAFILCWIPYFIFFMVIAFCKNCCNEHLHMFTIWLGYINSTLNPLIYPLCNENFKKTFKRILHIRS
T1 sequence (P25021 whole entry): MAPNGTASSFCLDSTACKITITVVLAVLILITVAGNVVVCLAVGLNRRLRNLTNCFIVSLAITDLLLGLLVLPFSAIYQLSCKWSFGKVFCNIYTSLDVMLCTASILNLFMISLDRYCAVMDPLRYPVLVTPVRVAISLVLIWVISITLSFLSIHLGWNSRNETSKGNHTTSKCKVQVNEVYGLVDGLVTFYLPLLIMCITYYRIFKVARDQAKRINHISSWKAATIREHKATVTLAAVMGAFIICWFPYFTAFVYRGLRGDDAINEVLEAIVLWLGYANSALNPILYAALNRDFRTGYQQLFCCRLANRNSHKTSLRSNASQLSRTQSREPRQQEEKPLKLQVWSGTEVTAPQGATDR

On to `COc1ccc2c(c1)c1c(n2CCc2n[nH]c(=S)n2C)CCN(C)C1` [Compound G11-d, 5-[2-(8-Methoxy-2-methyl-2,3,4,5-tetrahydro-1H-pyrido[4,3-b]indol-5-yl)ethyl]-4-methyl-2,4-dihydro-1,2,4-triazole-3-thione], for which the melting point (as a rule, the temperature of the solid-liquid transition) is 219 to 222 °C.
On the same count and under the same terms, the same measure for `Cc1ccc2c(c1)c1c(n2CCc2noc(-c3ccccc3)n2)CCN(C)C1` [Compound G6-c, 2,8-Dimethyl-5-[2-(5-phenyl-1,2,4-oxadiazol-3-yl)ethyl]-2,3,4,5-tetrahydro-1H-pyrido[4,3-b]-indole]: 120 to 120.5 °C; for `CN1CCc2c(c3cc(Cl)ccc3n2CCc2n[nH]c(=S)n2C)C1` [Compound G11-b, 5-[2-(8-Chloro-2-methyl-2,3,4,5-tetrahydro-1H-pyrido[4,3-b]indol-5-yl)ethyl]-4-methyl-2,4-dihydro-1,2,4-triazole-3-thione]: 216 to 219 °C.
On the same count and under the same terms, the same measure for `COc1ccc2c(c1)c1c(n2CCc2noc(-c3ccccc3)n2)CCN(C)C1` [Compound G6-b, 8-Methoxy-2-methyl-5-[2-(5-phenyl-1,2,4-oxadiazol-3-yl)ethyl]-2,3,4,5-tetrahydro-1H-pyrido[4,3-b]indole]: 77.5 to 79 °C; for `CN1CCc2c(c3cc(Cl)ccc3n2CCc2noc(-c3ccccc3)n2)C1` [Compound G6-d, 8-Chloro-2-methyl-5-[2-(5-phenyl-1,2,4-oxadiazol-3-yl)ethyl]-2,3,4,5-tetrahydro-1H-pyrido-[4,3-b]indole]: 122 to 123 °C.
Still for that read-out and setting: the result for `Cc1ccc2c(c1)c1c(n2CCc2nc(-c3ccccc3)cs2)CCN(C)C1` [Compound G8-c, 2,8-Dimethyl-5-[2-(4-phenylthiazol-2-yl)ethyl]-2,3,4,5-tetrahydro-1H-pyrido[4,3-b]indole] reads 148.5 to 149 °C.
With `CN1CCc2c(c3cc(F)ccc3n2CCc2noc(-c3ccccc3)n2)C1` [Compound C4-7], the “Influence on memory in the test recognition new localization of known object” value with mice (Dose of Compound 0.05 mg/kg) is “−”; in the data set on mice (Dose of Compound 0.1 mg/kg) it was “+”; with mice (Dose of Compound 0.5 mg/kg), “−”; in the data set on mice (Dose of Compound 1.0 mg/kg), “−”. The “effect of the dose on exploration time / memory (in words)” value with mice (dose 0.05 mg/kg), with mice (dose 0.5 mg/kg) and with mice (dose 1 mg/kg) was “not effective” in each case. Further, the “time exploring the object in a new location, % of the total time” value in the data set with mice (dose 0.1 mg/kg) is reported as 63.4±10.4%. Further, in the data set on mice (dose 0.1 mg/kg), the “time exploring the object in the known position, % of the total time” value amounted to 36.6±10.4%. Also, the “overall effect on memory (in words)” value in the data set with mice is given as “stimulated memory”. Also, the “concentration at which glutamate-induced 45Ca2+ uptake into synaptosomes was not affected” value in data set [1] fell in the range of 0.1 to 10 µM. The “glutamate-induced 45Ca2+ uptake into synaptosomes of rat cortex, % of control” value in data set [1] (50-100 μM) is about 128%. In addition, the “% Ca of control (control-100%), glutamate-induced 45Ca2+ uptake into synaptosomes” value in data set [1] (compound 0.1 μM) came to 97.2 ± 5.5%; in data set [1] (compound 0.5 μM), 87.6 ± 3.9%; in data set [1] (compound 1 μM), 105.3 ± 2.8%; in data set [1] (compound 5 μM) it was 109.2 ± 10%; in data set [1] (compound 10 μM), 101.6 ± 7.8%; in data set [1] (compound 50 μM), 128.3 ± 8.1%. Moreover, the “% Ca of control (control-100%), glutamate-induced 45Ca2+ uptake into synaptosomes” value in data set [1] (compound 100 μM) amounted to 123.6 ± 4.9%.
Consider `COc1ccc2c(c1)c1c(n2CCc2noc(-c3ccccc3)n2)CCN(C)C1` [Compound C4-5], for which the “Influence on memory in the test recognition new localization of known object” value with mice (Dose of Compound 0.05 mg/kg) is on record as “−”; with mice (Dose of Compound 0.1 mg/kg) it was “−”; with mice (Dose of Compound 0.5 mg/kg) it was “+”; in the data set on mice (Dose of Compound 1.0 mg/kg), “+”. In the data set on mice (comparison of effective doses), the “activity on memory: times weaker than dimebon” value is “approximately 10 times”. Further, the “effect of the dose on exploration time / memory (in words)” value in the data set on mice (dose 0.05 mg/kg) and with mice (dose 0.1 mg/kg) was “not effective” in each case. For the same compound, the “time exploring the object in a new location, % of the total time” value in the data set on mice (dose 0.5 mg/kg) came to 56.2±7.6%; in the data set on mice (dose 1 mg/kg), 60.6±8.4%. For the same compound, the “time exploring the object in the known position, % of the total time” value in the data set with mice (dose 0.5 mg/kg) is 43.8±7.6%; in the data set on mice (dose 1 mg/kg), 39.4±8.4%. In the data set with mice, the “overall effect on memory (in words)” value is listed as “stimulated memory”. In data set [1], the “concentration at which glutamate-induced 45Ca2+ uptake into synaptosomes was inhibited” value fell in the range of 1 to 25 µM. For the same compound, in data set [1] (10 μM (maximal inhibition)), the “inhibition of glutamate-induced 45Ca2+ uptake into synaptosomes” value is listed as 40%. In addition, the “glutamate-induced 45Ca2+ uptake into synaptosomes of rat cortex, % Ca of control (control-100%)” value in data set [1] (C 0.1 μM) was 136.4% and 136.4 ± 11.8%; in data set [1] (C 0.5 μM) it was 124.6 ± 13.7%; in data set [1] (C 1.0 μM), 99.8 ± 0.1%; in data set [1] (C 5.0 μM), 84.2 ± 0.7%; in data set [1] (C 10 μM), 59.9 ± 0.2%; in data set [1] (C 25 μM) it was 98.6 ± 9.4%. Also, the “glutamate-induced 45Ca2+ uptake into synaptosomes of rat cortex, % Ca of control (control-100%)” value is 111.7 ± 11.2% in data set [1] (C 50 μM); 148.4% and 148.4 ± 7.3% in data set [1] (C 100 μM).
With `CCN1CCc2c(c3cc(C)ccc3n2CC(O)c2ccc(C)cc2)C1` (racemic) [Compound 29, racemic-2-(2-ethyl-1,2,3,4-tetrahydro-8-methylpyrido[4,3-b]indol-5-yl)-1-p-tolylethanol], the inhibition – broadly, how much of the control response was suppressed – at 0.3 µM in data set [2] turned out to be 27%. In addition, in data set [3] (0.03 μM compound), the inhibition at 0.03 µM amounted to 37%. For the same compound, the inhibition at 0.1 µM in data set [3] (0.1 μM compound) was 57%. Also, the “compound type (classification by receptor binding profile and neurite outgrowth)” value in data set [4] is “Type one”.
